In patent US20160279069A1, “MATERIALS AND METHODS FOR SUSTAINED RELEASE OF ACTIVE COMPOUNDS” (The Florida International University Board of Trustees, priority 2015, published 2016):

Assays:
[1] = test system: HIV-1Ba-L infected primary human astrocytes (HA); assay: p24 antigen ELISA in HIV-infected primary human astrocytes (latency breaking and antiviral efficacy); assay type: cell-based; conditions: tested about 1 to about 10 μM, solution phase
Experimental: FIG. 11 represents an evaluation of the antiviral efficacy of an exemplary embodiment of the drug delivery system in suppressing p24 antigen levels in HIV-infected human astrocytes. The drug delivery system was added on the second day after HIV infection (HIV-1BaL) in equimolar concentration. Supernatants were evaluated on the third, fifth, and seventh day postinfection for p24 levels and were checked for its efficacy, along with its percentage cell viability, using MTT assay. […] Viral p24 protein in the culture supernatant was measured by enzyme-linked immunosorbent assay. Error bars indicate the standard deviation of triplicate data points and are representative of at least three experiments. Dotted lines represent the percentage cell viability; each point represents treatment period. […] NS=non-significant. MTT=3-(4,5-dimethylthiazol-2-yl)-2,5-diphenyltetrazolium bromide.
Latency-breaking and antiviral efficacy of the formulation was determined via quantification of p24 antigen in a primary human astrocytes (HA) infection model (Nair, M. et al., Nat Commun. 2013; 4:1707). […] The sustained-release ability of the finally assembled formulation ([MNP+tenofovir]2+vorinostat) was also evaluated over a treatment period of 5 days in the HA model. […]

human astrocytes (HAs) = test system: human astrocytes (HAs)
Experimental: In vitro cytotoxicity was assessed by MTT cell viability assay, using a CellTiter 96 Aqueous one-solution cell proliferation assay kit (catalog G3580; Promega, USA) (Nair, M. et al., Nat Commun. 2013; 4:1707). HAs were seeded in 96-well tissue plates at a density of 5×10^3 cells per well. […] Finally, approximately 100 μL stop solution (about 20% sodium dodecyl sulfate in about 50% dimethyl formamide) was added into each well, and absorbance was recorded at 550 nm by a microplate reader (Synergy HT; BioTek Instruments, Inc.).

For `O=C(CCCCCCC(=O)Nc1ccccc1)NO` [vorinostat], the “vorinostat concentration giving maximum p24 value (latency reversal)” value [1] was 1 µM and the “cytotoxicity of optimized vorinostat dose” value (human astrocytes (HAs)) was “nontoxic”.
